According to ChEMBL document CHEMBL5291721, “A preclinical secondary pharmacology resource illuminates target-adverse drug reaction associations of marketed drugs” (Nat Commun, 2023):

Columns and labels:
[1] = target: T1, Type-1 angiotensin II receptor (Homo sapiens, UniProt P30556)
T1 sequence (P30556 whole entry): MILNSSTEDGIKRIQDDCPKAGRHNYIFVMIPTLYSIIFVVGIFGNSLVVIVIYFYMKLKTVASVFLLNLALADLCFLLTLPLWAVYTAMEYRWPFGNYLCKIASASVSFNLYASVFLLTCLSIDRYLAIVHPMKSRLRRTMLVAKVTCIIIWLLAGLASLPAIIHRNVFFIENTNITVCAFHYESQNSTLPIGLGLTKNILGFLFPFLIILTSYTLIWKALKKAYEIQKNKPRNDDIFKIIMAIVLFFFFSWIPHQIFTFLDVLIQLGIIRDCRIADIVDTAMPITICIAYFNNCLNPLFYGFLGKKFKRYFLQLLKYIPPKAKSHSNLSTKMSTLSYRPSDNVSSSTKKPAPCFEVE

[2] = target: 5-hydroxytryptamine receptor 2B (Homo sapiens, UniProt P41595); type: functional, cell-based
Chain of 5-hydroxytryptamine receptor 2B (P41595 whole entry): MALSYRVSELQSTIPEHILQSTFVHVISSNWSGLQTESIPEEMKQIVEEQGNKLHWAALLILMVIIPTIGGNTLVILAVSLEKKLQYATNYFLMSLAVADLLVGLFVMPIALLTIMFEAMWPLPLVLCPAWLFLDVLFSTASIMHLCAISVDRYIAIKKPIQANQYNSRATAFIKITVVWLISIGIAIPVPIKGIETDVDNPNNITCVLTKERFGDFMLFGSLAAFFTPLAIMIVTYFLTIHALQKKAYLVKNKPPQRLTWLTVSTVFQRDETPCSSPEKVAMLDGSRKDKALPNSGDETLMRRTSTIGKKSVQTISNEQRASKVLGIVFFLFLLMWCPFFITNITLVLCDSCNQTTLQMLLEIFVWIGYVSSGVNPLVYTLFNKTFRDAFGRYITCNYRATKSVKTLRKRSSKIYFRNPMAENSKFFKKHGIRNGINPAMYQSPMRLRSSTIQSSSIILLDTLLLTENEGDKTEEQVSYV

[3] = target: Voltage-dependent L-type calcium channel subunit alpha-1C (Rattus norvegicus, UniProt P22002); type: functional
Chain of Voltage-dependent L-type calcium channel subunit alpha-1C (P22002 whole entry): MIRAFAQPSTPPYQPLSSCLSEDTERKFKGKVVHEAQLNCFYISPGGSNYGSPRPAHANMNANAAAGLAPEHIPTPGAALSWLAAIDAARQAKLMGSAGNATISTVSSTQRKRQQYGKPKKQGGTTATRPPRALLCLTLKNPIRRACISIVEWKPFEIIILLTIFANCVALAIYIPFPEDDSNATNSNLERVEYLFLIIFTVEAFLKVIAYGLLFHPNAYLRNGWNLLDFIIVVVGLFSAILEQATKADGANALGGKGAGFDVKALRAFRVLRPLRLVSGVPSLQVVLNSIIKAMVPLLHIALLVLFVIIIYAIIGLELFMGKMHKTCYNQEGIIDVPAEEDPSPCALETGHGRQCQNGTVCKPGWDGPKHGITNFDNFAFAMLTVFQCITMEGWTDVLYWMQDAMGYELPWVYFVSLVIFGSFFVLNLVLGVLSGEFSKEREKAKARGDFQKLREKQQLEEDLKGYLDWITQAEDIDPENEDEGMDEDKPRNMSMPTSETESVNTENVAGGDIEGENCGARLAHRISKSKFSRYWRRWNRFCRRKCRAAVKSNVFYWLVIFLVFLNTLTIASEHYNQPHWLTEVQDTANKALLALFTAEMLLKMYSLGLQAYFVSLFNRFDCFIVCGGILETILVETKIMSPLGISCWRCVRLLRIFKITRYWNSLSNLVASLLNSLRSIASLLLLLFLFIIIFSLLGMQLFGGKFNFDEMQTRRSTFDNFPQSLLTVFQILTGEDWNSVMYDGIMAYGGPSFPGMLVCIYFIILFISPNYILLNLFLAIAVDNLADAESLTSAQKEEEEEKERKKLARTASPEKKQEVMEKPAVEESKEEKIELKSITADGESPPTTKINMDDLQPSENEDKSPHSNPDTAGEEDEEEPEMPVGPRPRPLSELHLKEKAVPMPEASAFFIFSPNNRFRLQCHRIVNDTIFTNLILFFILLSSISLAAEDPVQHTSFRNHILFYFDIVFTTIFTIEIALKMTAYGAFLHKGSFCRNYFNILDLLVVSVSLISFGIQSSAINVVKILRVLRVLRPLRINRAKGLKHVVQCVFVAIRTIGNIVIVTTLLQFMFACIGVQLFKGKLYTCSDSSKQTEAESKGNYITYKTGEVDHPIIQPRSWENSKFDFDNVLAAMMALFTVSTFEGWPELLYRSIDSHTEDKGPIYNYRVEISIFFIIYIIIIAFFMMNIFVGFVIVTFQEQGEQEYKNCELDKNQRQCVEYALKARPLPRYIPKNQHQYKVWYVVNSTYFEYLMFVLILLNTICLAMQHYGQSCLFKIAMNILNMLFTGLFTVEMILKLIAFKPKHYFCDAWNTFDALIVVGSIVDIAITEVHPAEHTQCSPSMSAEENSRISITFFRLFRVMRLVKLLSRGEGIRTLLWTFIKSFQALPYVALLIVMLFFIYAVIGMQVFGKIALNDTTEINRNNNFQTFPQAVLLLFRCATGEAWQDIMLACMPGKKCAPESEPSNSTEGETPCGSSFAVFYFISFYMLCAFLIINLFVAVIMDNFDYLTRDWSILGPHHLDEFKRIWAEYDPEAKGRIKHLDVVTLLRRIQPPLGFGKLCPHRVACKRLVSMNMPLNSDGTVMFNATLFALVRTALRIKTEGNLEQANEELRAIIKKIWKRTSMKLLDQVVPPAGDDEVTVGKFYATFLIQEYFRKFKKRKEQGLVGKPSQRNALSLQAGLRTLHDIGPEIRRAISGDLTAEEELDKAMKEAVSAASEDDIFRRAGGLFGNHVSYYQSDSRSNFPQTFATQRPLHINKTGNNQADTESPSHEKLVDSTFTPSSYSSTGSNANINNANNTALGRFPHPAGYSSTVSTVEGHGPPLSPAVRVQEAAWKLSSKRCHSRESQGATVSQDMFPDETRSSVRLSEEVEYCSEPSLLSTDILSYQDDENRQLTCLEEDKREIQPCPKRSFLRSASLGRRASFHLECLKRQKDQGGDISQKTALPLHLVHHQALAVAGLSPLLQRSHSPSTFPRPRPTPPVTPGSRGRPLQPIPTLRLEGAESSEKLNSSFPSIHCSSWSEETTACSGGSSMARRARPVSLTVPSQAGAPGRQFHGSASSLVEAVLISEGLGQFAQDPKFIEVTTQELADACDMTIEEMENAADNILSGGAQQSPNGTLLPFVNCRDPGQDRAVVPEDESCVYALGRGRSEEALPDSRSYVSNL

[4] = target: Delta-type opioid receptor (Homo sapiens, UniProt P41143)
Chain of Delta-type opioid receptor (P41143 whole entry): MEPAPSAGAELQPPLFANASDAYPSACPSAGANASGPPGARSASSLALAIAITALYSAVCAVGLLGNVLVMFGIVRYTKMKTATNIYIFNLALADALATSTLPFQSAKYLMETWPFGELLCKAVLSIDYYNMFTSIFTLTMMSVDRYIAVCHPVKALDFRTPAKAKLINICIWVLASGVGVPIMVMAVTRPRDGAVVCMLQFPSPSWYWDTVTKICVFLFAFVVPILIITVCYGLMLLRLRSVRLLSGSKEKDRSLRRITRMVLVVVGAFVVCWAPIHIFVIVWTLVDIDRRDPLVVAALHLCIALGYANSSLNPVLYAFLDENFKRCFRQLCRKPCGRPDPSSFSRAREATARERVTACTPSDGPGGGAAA

[5] = target: T2, Neuropeptide Y receptor type 1 (Homo sapiens, UniProt P25929)
T2 sequence (P25929 whole entry): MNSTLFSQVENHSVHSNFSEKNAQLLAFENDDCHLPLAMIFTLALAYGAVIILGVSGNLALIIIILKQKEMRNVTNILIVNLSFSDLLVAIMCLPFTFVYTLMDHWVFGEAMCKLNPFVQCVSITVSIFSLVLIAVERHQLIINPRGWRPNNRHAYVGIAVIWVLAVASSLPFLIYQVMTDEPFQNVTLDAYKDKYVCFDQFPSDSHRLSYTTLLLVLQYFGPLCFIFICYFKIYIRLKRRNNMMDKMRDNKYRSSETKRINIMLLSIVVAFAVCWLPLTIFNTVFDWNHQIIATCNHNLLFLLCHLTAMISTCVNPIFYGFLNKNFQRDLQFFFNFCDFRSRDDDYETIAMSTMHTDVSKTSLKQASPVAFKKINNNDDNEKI

Glucocorticoid receptor = target: T3, Glucocorticoid receptor (Homo sapiens, UniProt P04150)
T3 sequence (P04150 whole entry): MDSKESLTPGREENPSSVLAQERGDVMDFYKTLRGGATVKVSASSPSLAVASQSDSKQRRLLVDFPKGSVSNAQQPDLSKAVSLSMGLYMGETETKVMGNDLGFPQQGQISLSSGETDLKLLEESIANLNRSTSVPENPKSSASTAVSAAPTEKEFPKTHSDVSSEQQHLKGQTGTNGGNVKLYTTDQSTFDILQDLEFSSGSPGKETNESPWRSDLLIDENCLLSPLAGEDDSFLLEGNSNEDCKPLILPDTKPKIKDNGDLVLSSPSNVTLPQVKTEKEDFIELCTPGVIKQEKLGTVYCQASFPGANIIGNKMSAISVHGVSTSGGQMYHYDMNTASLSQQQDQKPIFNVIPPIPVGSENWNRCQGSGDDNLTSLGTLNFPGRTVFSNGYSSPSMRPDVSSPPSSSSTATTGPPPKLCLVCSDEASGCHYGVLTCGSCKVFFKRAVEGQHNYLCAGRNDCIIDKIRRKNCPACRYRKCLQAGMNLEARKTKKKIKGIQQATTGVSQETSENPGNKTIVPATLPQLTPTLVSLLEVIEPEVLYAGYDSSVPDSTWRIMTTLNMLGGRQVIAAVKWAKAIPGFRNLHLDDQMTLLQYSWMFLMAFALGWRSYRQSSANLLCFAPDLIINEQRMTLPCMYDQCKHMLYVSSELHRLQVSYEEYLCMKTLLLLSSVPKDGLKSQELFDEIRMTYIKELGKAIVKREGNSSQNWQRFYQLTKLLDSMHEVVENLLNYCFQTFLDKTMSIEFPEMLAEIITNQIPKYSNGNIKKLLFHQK

[6] = target: Glutamate receptor ionotropic, NMDA 1 (Rattus norvegicus, UniProt P35439)
[7] = target: T4, Equilibrative nucleoside transporter 1 (Homo sapiens, UniProt Q99808)
T4 sequence (Q99808 whole entry): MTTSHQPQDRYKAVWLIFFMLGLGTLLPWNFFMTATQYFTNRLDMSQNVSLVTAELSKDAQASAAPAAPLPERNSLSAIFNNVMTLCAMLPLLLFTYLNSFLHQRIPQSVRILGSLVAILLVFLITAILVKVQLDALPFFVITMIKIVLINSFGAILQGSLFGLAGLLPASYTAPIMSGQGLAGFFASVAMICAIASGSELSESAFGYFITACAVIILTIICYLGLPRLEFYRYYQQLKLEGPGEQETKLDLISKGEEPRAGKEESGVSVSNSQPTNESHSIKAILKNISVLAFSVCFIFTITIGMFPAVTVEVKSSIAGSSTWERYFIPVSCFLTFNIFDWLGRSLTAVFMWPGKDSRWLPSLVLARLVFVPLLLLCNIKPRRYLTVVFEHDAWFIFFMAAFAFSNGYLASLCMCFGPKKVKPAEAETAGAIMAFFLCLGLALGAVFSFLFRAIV

[8] = target: Voltage-gated inwardly rectifying potassium channel KCNH2 (Homo sapiens, UniProt Q12809); type: functional; details: read-out: AC50
Chain of Voltage-gated inwardly rectifying potassium channel KCNH2 (Q12809 whole entry): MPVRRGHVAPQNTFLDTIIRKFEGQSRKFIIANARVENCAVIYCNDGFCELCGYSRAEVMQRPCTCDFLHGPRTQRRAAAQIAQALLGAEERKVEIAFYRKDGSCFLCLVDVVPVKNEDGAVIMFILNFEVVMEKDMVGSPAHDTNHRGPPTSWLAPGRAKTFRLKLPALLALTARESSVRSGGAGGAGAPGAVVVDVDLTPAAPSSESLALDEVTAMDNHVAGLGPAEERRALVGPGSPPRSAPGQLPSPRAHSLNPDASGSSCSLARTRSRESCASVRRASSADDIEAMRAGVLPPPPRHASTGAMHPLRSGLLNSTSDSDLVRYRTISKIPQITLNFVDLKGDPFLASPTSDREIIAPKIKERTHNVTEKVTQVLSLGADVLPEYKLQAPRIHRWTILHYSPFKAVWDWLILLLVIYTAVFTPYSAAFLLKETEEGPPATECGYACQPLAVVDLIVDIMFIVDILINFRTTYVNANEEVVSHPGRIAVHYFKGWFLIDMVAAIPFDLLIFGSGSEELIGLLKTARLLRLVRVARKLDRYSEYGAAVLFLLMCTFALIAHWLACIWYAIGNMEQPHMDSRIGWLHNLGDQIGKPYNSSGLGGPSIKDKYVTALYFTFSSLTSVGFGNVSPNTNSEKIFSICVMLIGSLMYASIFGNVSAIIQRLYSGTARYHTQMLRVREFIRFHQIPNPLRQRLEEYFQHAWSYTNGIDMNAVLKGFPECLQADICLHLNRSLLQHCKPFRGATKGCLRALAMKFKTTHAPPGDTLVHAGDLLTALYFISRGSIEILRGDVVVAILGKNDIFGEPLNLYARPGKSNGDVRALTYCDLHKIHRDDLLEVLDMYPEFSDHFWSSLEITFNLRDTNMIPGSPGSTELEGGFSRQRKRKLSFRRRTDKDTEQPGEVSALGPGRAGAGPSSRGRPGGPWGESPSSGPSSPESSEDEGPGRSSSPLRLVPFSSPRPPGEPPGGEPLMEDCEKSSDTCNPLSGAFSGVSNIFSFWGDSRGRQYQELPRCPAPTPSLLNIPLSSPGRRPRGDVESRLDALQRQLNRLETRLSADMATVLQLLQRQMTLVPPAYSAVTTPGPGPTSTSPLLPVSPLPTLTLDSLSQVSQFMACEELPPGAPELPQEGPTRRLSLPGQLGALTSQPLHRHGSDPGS

Motilin receptor = Motilin receptor (Homo sapiens, UniProt O43193)
Chain of Motilin receptor (O43193 whole entry): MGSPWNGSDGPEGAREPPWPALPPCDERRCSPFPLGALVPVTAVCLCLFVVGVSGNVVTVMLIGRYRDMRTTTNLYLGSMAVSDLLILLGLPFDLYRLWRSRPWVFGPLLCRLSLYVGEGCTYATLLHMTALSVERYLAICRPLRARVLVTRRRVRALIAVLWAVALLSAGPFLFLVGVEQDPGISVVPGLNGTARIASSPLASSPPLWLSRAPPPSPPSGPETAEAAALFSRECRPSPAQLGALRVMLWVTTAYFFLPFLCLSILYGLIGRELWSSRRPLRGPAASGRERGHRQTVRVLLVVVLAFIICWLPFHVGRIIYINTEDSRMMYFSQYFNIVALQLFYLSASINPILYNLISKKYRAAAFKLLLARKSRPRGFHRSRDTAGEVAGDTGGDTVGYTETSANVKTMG

Endothelin-1 receptor = target: T5, Endothelin-1 receptor (Homo sapiens, UniProt P25101)
T5 sequence (P25101 whole entry): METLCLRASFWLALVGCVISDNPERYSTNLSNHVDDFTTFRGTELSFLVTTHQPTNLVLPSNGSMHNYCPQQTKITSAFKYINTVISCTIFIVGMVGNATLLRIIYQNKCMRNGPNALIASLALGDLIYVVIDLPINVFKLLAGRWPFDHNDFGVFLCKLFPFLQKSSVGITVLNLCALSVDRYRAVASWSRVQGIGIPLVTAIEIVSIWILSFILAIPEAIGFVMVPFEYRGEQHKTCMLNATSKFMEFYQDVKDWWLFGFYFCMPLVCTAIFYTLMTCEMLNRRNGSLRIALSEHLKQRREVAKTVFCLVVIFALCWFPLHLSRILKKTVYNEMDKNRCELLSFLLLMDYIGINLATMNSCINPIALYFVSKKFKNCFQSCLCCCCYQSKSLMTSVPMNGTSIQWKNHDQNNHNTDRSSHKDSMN

Vasopressin V1a receptor = Vasopressin V1a receptor (Homo sapiens, UniProt P37288)
Chain of Vasopressin V1a receptor (P37288 whole entry): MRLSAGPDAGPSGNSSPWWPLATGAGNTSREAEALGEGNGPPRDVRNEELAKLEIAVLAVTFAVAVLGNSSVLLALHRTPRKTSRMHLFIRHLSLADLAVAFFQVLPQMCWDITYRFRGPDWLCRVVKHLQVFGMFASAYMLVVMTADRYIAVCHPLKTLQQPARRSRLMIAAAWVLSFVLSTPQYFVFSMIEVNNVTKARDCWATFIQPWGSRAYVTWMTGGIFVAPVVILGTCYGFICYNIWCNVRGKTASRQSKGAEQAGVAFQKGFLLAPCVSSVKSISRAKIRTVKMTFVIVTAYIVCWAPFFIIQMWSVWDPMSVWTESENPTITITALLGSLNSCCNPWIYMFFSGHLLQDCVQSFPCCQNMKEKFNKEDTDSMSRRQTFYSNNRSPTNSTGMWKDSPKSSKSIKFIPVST
Also: assay procedure not described here.

SMILES | AC50 [1] | AC50 [2] | AC50 [3] | AC50 [4] | AC50 [5] | AC50 (Glucocorticoid receptor) | AC50 [6] | AC50 [7] | AC50 (Motilin receptor) | AC50 (Endothelin-1 receptor) | AC50 (Vasopressin V1a receptor) | AC50 [8]
Cc1cccc(N(C)C(=S)Oc2ccc3ccccc3c2)c1 [TOLNAFTATE] | > 10 µM | > 10 µM | 25 µM | > 30 µM | > 10 µM | > 30 µM | > 10 µM | > 10 µM | > 10 µM | – | – | > 30 µM
Nc1ccc(C(=O)O)c(O)c1 [AMINOSALICYLIC ACID] | > 30 µM | > 30 µM | – | > 30 µM | > 30 µM | > 30 µM | > 30 µM | – | > 30 µM | > 30 µM | – | > 30 µM
C[n+]1ccccc1/C=N/O [PRALIDOXIME] | – | > 30 µM | – | > 30 µM | – | – | > 30 µM | – | – | – | – | > 30 µM
COc1cc(OC)c(C(=O)CCCN2CCCC2)c(OC)c1 [BUFLOMEDIL] | > 30 µM | > 30 µM | > 30 µM | > 30 µM | > 30 µM | > 30 µM | > 30 µM | > 30 µM | > 30 µM | > 30 µM | – | 2.6 µM
CC1(C)C(/C=C/C=C/C=C/C=C2\N(CCCCS(=O)(=O)O)c3ccc4ccccc4c3C2(C)C)=[N+](CCCCS(=O)(=O)[O-])c2ccc3ccccc3c21 [INDOCYANINE GREEN ACID FORM] | 9 µM | – | – | 9.7 µM | > 30 µM | > 30 µM | > 30 µM | 11 µM | 23 µM | > 30 µM | 7.7 µM | 6.5 µM
CCCCCCNC(=O)n1cc(F)c(=O)[nH]c1=O [CARMOFUR] | > 30 µM | > 30 µM | > 30 µM | > 30 µM | > 30 µM | > 30 µM | > 30 µM | > 30 µM | > 30 µM | > 30 µM | – | > 30 µM

Continued, in another order:

AC50 [1] | AC50 [2] | AC50 [3] | AC50 [4] | AC50 [5] | AC50 (Glucocorticoid receptor) | AC50 [6] | AC50 [7] | AC50 (Motilin receptor) | AC50 (Endothelin-1 receptor) | AC50 (Vasopressin V1a receptor) | SMILES | AC50 [8]
> 30 µM | > 30 µM | – | > 30 µM | > 30 µM | > 30 µM | 21 µM | > 30 µM | > 30 µM | > 30 µM | – | CCCNC(C)C(=O)Nc1ccccc1C (stereo unspecified) [PRILOCAINE] | > 30 µM
> 30 µM | > 30 µM | – | > 30 µM | > 30 µM | > 30 µM | > 30 µM | > 30 µM | > 30 µM | > 30 µM | – | CCn1cc(C(=O)O)c(=O)c2cc(F)c(N3CCN(C)CC3)cc21 [PEFLOXACIN] | –
> 30 µM | > 30 µM | > 30 µM | – | > 30 µM | – | – | – | > 30 µM | > 30 µM | – | CN1[C@@H]2CC[C@H]1C[C@@H](OC(=O)c1c[nH]c3ccccc13)C2 [TROPISETRON] | 0.95 µM
